Values joined by “and” are separate entries in the source; they are usually repeats but may differ in a detail not shown here. Equal entries are not always repeated. Where two headings read alike, the source gives them in different places.
Assays:
MA-10-W51 = assay: Cytotoxicity leukemia; format: cell-based, human; conditions: growth factor dependent MA-10-W51
From the text: Human cord blood CD34+ cells transduced with MLL-AF9 gene: MA-10, MA-18. Human bone marrow CD34+ cells transduced with MLL-AF9 gene: MA-23. Human cord blood CD34+ cells transduced with MLL-AF9 and N-ras genes: MA-9.3, […] ).

[1] = system: Human Cancer Cell lines, Primary Patient Tumor Samples and normal tissues; assay: Sensitivity classes over panel of cancer lines and normal tissues; format: cell-based; conditions: tumor cell lines of Table 12
H526 xenografts = assay: SCLC H526 xenograft in NSG mice; format: in vivo, mouse; conditions: 30 mg/kg i.v. every second day; d30
From the text: Xenografts of GFP/Luciferase-labeled H526 were established in groups of ten NSG male mice aged 12 wks by subcutaneous injection of 50,000 tumor cells.

Pfeiffer = conditions: human
Experimental: (§1) After 72 hours, the cultures were pulsed with Alamar Blue overnight, and the fluorescent intensity of resulted cultures was measured by a Synergy H1 plate-reader (BioTek Inc).

LY7 (OCH-Ly7) = assay: Cytotoxicity DLBCL; conditions: read-out: cytotoxicity IC50; LY7, DLBCL GCB
Farage = assay: cells; conditions: Homo sapiens, read-out: cytotoxicity IC50
CV1 renal fibroblasts = assay: Cytotoxicity normal tissue 72 hr; format: cell-based, African green monkey (Cercopithecus aethiops)
A204 rhabdomyosarcoma = assay: Cytotoxicity sarcoma; conditions: read-out: cytotoxic activity (IC50), A204 (rhabdoid?)
Experimental: as §1

C57Bl/6 mice = assay: Complete blood counts in healthy mice; format: in vivo, mouse
From the text: This is particularly striking in the case of neutrophils, red blood cells and platelets, whose levels are the most frequent dose limiting toxicities seen in clinic evaluation of alkylating drug therapy. There was a 3-4-fold increase in monocytes. The only negative effect was a modest reduction in WBC numbers due to mild lymphopenia at day 10 in the BO-treated group.

[2] = system: BMEC-hTert BM endothelium; format: cell-based, human
H526 xenograft = assay: SCLC H526 xenograft in nude mice; format: in vivo, mouse; conditions: 40 mg/kg i.v.
[3] = system: nude mice bearing prostate 22Rv/HL2; assay: Blood chemistry, 22Rv/HL2 xenograft mice; conditions: 24 hrs after last treatment
Mino = assay: Combination with BO-1055, MCL (Tables 28, 29); format: cell-based, human; conditions: read-out: IC50 single drug
Toledo = conditions: human
Experimental: as §1

[4] = system: HUVEC umbilical endothelium; assay: Cytotoxicity normal tissue 72 hr; format: cell-based, human
Z-138 = assay: Cytotoxicity mantle cell lymphoma
Experimental: as §1

MS-5 adult BM stroma = assay: Cytotoxicity normal tissue 72 hr; format: cell-based, mouse
Microsome stability = conditions: rat, microsomes
H841 = assay: Cytotoxicity SCLC 72 hr alamar blue; format: cell-based, human
[5] = system: IMR90 fetal lung myofibroblast; assay: Cytotoxicity normal tissue 72 hr; format: cell-based, human
H82 = assay: Cytotoxicity SCLC 72 hr alamar blue; format: cell-based, human
H1755 = format: cell-based, human
[6] = system: BCI-NSI hTERT bronchial epithelium; assay: Cytotoxicity normal tissue 72 hr; format: cell-based, human; conditions: read-out: IC50
H1373 = format: cell-based, human
H128 = assay: Cytotoxicity SCLC 72 hr alamar blue; format: cell-based, human
HCC2450 = format: cell-based, human
H678 = assay: Cytotoxicity SCLC 72 hr alamar blue; format: cell-based, human
H2228 = format: cell-based, human
[7] = system: 16HBE SV40+ bronchial epithelium; format: cell-based, human
H60 = assay: Cytotoxicity SCLC 72 hr alamar blue; format: cell-based, human
H3122 = format: cell-based, human
SK-LU-1 = format: cell-based, human
H69 = assay: Cytotoxicity SCLC 72 hr alamar blue; format: cell-based, human
H1650 = format: cell-based, human
[8] = 30 mg/kg i.v. every other day x5
[9] = day 10, 30 mg/kg i.v. days 1,3,5,8,10

What does the source list for `CN(C)CCNC(=O)c1cccc(NC(=O)Nc2ccc(N(CCCl)CCCl)cc2)c1` [BO-1055, Ureidomustine]?
cytotoxicity, dose titration (FIG. 9) (MA-10-W51): highly cytotoxic; share of tested cell lines with IC50 in sub-μM range [1]: 30%; tumor-free mice (H526 xenografts): 3/5; IC50 (Pfeiffer): 3.87 µM; IC50 (LY7 (OCH-Ly7)): 5.06 µM; IC50 (Farage): 0.44 µM; IC50 (CV1 renal fibroblasts; Chlorocebus sabaeus, Fibroblast, 72 h): > 100 µM; IC50 (A204 rhabdomyosarcoma): 0.08 µM; increase in monocytes (C57Bl/6 mice; [8]): 3-4 fold; suppression of hematologic parameters (C57Bl/6 mice; [8]): no significant suppression; HCT (C57Bl/6 mice; [9]): 46.30 ± 1.04%; HGB (C57Bl/6 mice; [9]): 13.08 ± 0.25 g/dL; MCHC (C57Bl/6 mice; [9]): 28.28 ± 0.42 g/dL; MCV (C57Bl/6 mice; [9]): 51.03 ± 1.25 fL; MPV (C57Bl/6 mice; [9]): 6.38 ± 0.09 fL; PDW (C57Bl/6 mice; [9]): 7.40 ± 0.24 fL; PLT (C57Bl/6 mice; [9]): 1108.3 ± 76.1 K/μL; RBC (C57Bl/6 mice; [9]): 9.08 ± 0.18 M/μL; RDW-CV (C57Bl/6 mice; [9]): 23.18 ± 0.64%; RDW-SD (C57Bl/6 mice; [9]): 32.48 ± 0.29 fL; WBC (C57Bl/6 mice; [9]): 5.34 ± 0.99 K/μL; IC50 ([2]; BMEC-hTert, 72 hr): ≥ 10 µM; complete remission (CR) (H526 xenograft; 28 d): 3/4; complete remission (CR) (H526 xenograft; 32 d): 2/4; complete remission (CR) (H526 xenograft; 77 d): 1/4; ALT [3]: 56.83 U/L; AST [3]: 102.17 U/L; BUN [3]: 37.23 mg/dL; CREA [3]: 0.38 mg/dL; UA [3]: 3.73 mg/dL; IC50 (Mino): 0.115 µM and 0.105 µM and 0.101 µM; IC50 (Toledo): 8.95 µM; IC50 [4]: 50 µM; IC50 (Z-138; read-out: cytotoxicity IC50, Z-138, mantle cell lymphoma): 0.3 µM; IC50 (Z-138; read-out: mean IC50±SD, Z-138): 0.182 ± 0.15 µM; IC50 (MS-5 adult BM stroma; MS-5 (mouse), 72 hr): ≥ 10 µM; intrinsic clearance (Microsome stability): High intrinsic clearance

Which IC50 (H841) does the source give for `N.N.[Cl][Pt][Cl]` [Cisplatin] here?
Its IC50 is ≥ 20 µM.

And the IC50 [5]?
Its IC50 is > 100 µM.

What about the IC50 (H82) of the same molecule?
The IC50 was ≥ 20 µM.

What about the IC50 (H1755) of the same molecule?
Its IC50 is ≥ 15 µM.

And the IC50 [6]?
The IC50 was 30 µM.

What about the IC50 (H1373) of the same molecule?
The IC50 was 9.46 µM.

And the IC50 (H128)?
Its IC50 is 4.79 µM.

And the IC50 (HCC2450)?
The IC50 was ≥ 80 µM.

What about the IC50 (H678) of the same molecule?
The IC50 was 3.81 µM.

What about the IC50 (CV1 renal fibroblasts; read-out: IC50) of the same molecule?
Its IC50 is 97.9 µM.

What about the IC50 (H2228) of the same molecule?
The IC50 was ≥ 25 µM.

And the IC50 ([2]; read-out: IC50)?
The IC50 was 20 µM.

And the IC50 [7]?
The IC50 was 3.6 µM.

And the IC50 ([4]; read-out: IC50)?
Its IC50 is 50 µM.

What about the IC50 (H60) of the same molecule?
Its IC50 is 2.09 µM.

What about the IC50 (MS-5 adult BM stroma; read-out: IC50) of the same molecule?
Its IC50 is 22 µM.

And the IC50 (H3122)?
Its IC50 is ≥ 30 µM.

And the IC50 (SK-LU-1)?
The IC50 was 6.94 µM.

And the IC50 (H69)?
The IC50 was 3.42 µM.

And the IC50 (H1650)?
The IC50 was 7.51 µM.
